From the OligoGym collection
Where “and” joins values, the source holds several entries; their conditions need not be identical. Equal values may be shown once. HELM strings list units from the 5' end as sugar, base in round brackets, then linkage (d deoxyribose, r ribose, m 2'-O-methyl, p phosphodiester). Methylation of C is not given here. [moe] = 2'-O-(2-methoxyethyl) (MOE); [cEt] = constrained ethyl (cEt); [sp] = phosphorothioate linkage

Biological target: HBV
Details: ASO

Substance: RNA1{[moe](G)[sp].[moe](A)[sp].[moe](A)[sp].[moe](C)[sp].d(C)[sp].d(A)[sp].d(C)[sp].d(T)[sp].d(G)[sp].d(A)[sp].d(A)[sp].d(C)[sp].d(A)[sp].[moe](A)[sp].[moe](A)[sp].[moe](T)[sp].[moe](G)}$$$$V2.0
- target mRNA inhibition (HepG2, 0.07 µM): 33% and 45%

Substance: RNA1{[moe](G)[sp].[moe](C)[sp].d(A)[sp].d(C)[sp].d(T)[sp].d(A)[sp].d(G)[sp].d(T)[sp].d(A)[sp].d(A)[sp].d(A)[sp].[moe](C)[sp].[moe](T)[sp].[moe](G)[sp].[moe](A)[sp].[moe](G)[sp].[moe](C)}$$$$V2.0
- target mRNA inhibition (HepG2, 0.07 µM): 75% and 78%

Substance: RNA1{[moe](G)[sp].[cEt](T)[sp].d(G)[sp].d(C)[sp].d(A)[sp].d(G)[sp].d(A)[sp].d(G)[sp].d(G)[sp].d(T)[sp].d(G)[sp].d(A)[sp].[cEt](A)[sp].[moe](G)[sp].[cEt](C)[sp].[moe](G)}$$$$V2.0
- target mRNA inhibition (HepG2, 0.0092593 µM): 14%
- target mRNA inhibition (HepG2, 0.0277778 µM): 33%
- target mRNA inhibition (HepG2, 0.07 µM): 74% and 83%
- target mRNA inhibition (HepG2, 0.0833333 µM): 70%
- target mRNA inhibition (HepG2, 0.25 µM): 77%

Substance: RNA1{[moe](A)[sp].[cEt](C)[sp].[cEt](G)[sp].d(G)[sp].d(G)[sp].d(C)[sp].d(A)[sp].d(A)[sp].d(C)[sp].d(A)[sp].d(T)[sp].d(A)[sp].d(C)[sp].[cEt](C)[sp].[cEt](T)[sp].[moe](T)}$$$$V2.0
- target mRNA inhibition (HepG2, 0.0092593 µM): 38%
- target mRNA inhibition (HepG2, 0.0277778 µM): 73%
- target mRNA inhibition (HepG2, 0.07 µM): 63% and 88%
- target mRNA inhibition (HepG2, 0.0833333 µM): 87%
- target mRNA inhibition (HepG2, 0.25 µM): 92%

Substance: RNA1{[moe](A)[sp].[moe](G)[sp].[moe](A)[sp].[moe](G)[sp].[moe](G)[sp].d(T)[sp].d(G)[sp].d(A)[sp].d(A)[sp].d(G)[sp].d(C)[sp].d(G)[sp].d(A)[sp].d(A)[sp].[moe](G)[sp].[moe](T)}$$$$V2.0
- target mRNA inhibition (HepG2, 0.07 µM): 55% and 52%

Substance: RNA1{[moe](T)[sp].[moe](C)[sp].d(C)[sp].d(G)[sp].d(C)[sp].d(A)[sp].d(G)[sp].d(T)[sp].d(A)[sp].d(T)[sp].d(G)[sp].[moe](G)[sp].[moe](A)[sp].[moe](T)[sp].[moe](C)[sp].[moe](G)}$$$$V2.0
- target mRNA inhibition (HepG2, 0.07 µM): 70% and 62%

Substance: RNA1{[moe](T)[sp].[moe](C)[sp].[moe](C)[sp].[moe](G)[sp].[moe](C)[sp].d(A)[sp].d(G)[sp].d(T)[sp].d(A)[sp].d(T)[sp].d(G)[sp].d(G)[sp].d(A)[sp].d(T)[sp].[moe](C)[sp].[moe](G)}$$$$V2.0
- target mRNA inhibition (HepG2, 0.07 µM): 75% and 59%

Substance: RNA1{[moe](G)[sp].[moe](A)[sp].[moe](A)[sp].d(C)[sp].d(T)[sp].d(G)[sp].d(G)[sp].d(A)[sp].d(G)[sp].d(C)[sp].d(C)[sp].d(A)[sp].[moe](C)[sp].[moe](C)[sp].[moe](A)[sp].[moe](G)}$$$$V2.0
- target mRNA inhibition (HepG2, 0.07 µM): 51% and 39%

Substance: RNA1{[moe](A)[sp].[moe](T)[sp].[moe](T)[sp].[moe](T)[sp].[moe](A)[sp].d(T)[sp].d(G)[sp].d(C)[sp].d(C)[sp].d(T)[sp].d(A)[sp].d(C)[sp].d(A)[sp].d(G)[sp].[moe](C)[sp].[moe](C)}$$$$V2.0
- target mRNA inhibition (HepG2, 0.07 µM): 47% and 41%

Substance: RNA1{[moe](A)[sp].[moe](T)[sp].d(G)[sp].d(A)[sp].d(G)[sp].d(G)[sp].d(C)[sp].d(A)[sp].d(T)[sp].d(A)[sp].d(G)[sp].[moe](C)[sp].[moe](A)[sp].[moe](G)[sp].[moe](C)[sp].[moe](A)}$$$$V2.0
- target mRNA inhibition (HepG2, 0.07 µM): 53% and 32%

Substance: RNA1{[moe](A)[sp].[moe](C)[sp].[moe](C)[sp].[moe](A)[sp].[moe](C)[sp].[moe](T)[sp].d(G)[sp].d(A)[sp].d(A)[sp].d(C)[sp].d(A)[sp].d(A)[sp].d(A)[sp].d(T)[sp].d(G)[sp].[moe](G)[sp].[moe](C)}$$$$V2.0
- target mRNA inhibition (HepG2, 0.07 µM): 59% and 42%

Substance: RNA1{[moe](G)[sp].[moe](A)[sp].[moe](T)[sp].d(G)[sp].d(A)[sp].d(G)[sp].d(G)[sp].d(C)[sp].d(A)[sp].d(T)[sp].d(A)[sp].d(G)[sp].d(C)[sp].[cEt](A)[sp].[cEt](G)[sp].[cEt](C)}$$$$V2.0
- target mRNA inhibition (HepG2, 0.07 µM): 56% and 66%

Substance: RNA1{[moe](T)[sp].[cEt](G)[sp].[cEt](A)[sp].d(G)[sp].d(G)[sp].d(C)[sp].d(C)[sp].d(C)[sp].d(A)[sp].d(C)[sp].d(T)[sp].d(C)[sp].d(C)[sp].[cEt](C)[sp].[cEt](A)[sp].[moe](T)}$$$$V2.0
- target mRNA inhibition (HepG2, 0.07 µM): 56% and 80%

Substance: RNA1{[moe](C)[sp].[moe](G)[sp].d(A)[sp].d(A)[sp].d(C)[sp].d(C)[sp].d(A)[sp].d(C)[sp].d(T)[sp].d(G)[sp].d(A)[sp].[moe](A)[sp].[moe](C)[sp].[moe](A)[sp].[moe](A)[sp].[moe](A)}$$$$V2.0
- target mRNA inhibition (HepG2, 0.07 µM): 37% and 23%

Substance: RNA1{[moe](G)[sp].[moe](A)[sp].d(G)[sp].d(G)[sp].d(T)[sp].d(G)[sp].d(A)[sp].d(A)[sp].d(G)[sp].d(C)[sp].d(G)[sp].[moe](A)[sp].[moe](A)[sp].[moe](G)[sp].[moe](T)[sp].[moe](G)[sp].[moe](C)}$$$$V2.0
- target mRNA inhibition (HepG2, 0.07 µM): 67% and 63%

Substance: RNA1{[moe](C)[sp].[moe](G)[sp].[moe](G)[sp].[moe](G)[sp].d(C)[sp].d(A)[sp].d(A)[sp].d(C)[sp].d(A)[sp].d(T)[sp].d(A)[sp].d(C)[sp].d(C)[sp].[moe](T)[sp].[moe](T)[sp].[moe](G)}$$$$V2.0
- target mRNA inhibition (HepG2, 0.07 µM): 48% and 65%

Substance: RNA1{[moe](G)[sp].[cEt](A)[sp].d(A)[sp].d(C)[sp].d(C)[sp].d(A)[sp].d(C)[sp].d(T)[sp].d(G)[sp].d(A)[sp].d(A)[sp].d(C)[sp].[cEt](A)[sp].[moe](A)[sp].[cEt](A)[sp].[moe](T)}$$$$V2.0
- target mRNA inhibition (HepG2, 0.07 µM): 49% and 43%

Substance: RNA1{[moe](G)[sp].[moe](A)[sp].[moe](A)[sp].[moe](C)[sp].[moe](C)[sp].[moe](A)[sp].d(C)[sp].d(T)[sp].d(G)[sp].d(A)[sp].d(A)[sp].d(C)[sp].d(A)[sp].d(A)[sp].d(A)[sp].[moe](T)[sp].[moe](G)}$$$$V2.0
- target mRNA inhibition (HepG2, 0.07 µM): 53% and 43%

Substance: RNA1{[moe](C)[sp].[moe](G)[sp].d(A)[sp].d(A)[sp].d(C)[sp].d(C)[sp].d(A)[sp].d(C)[sp].d(T)[sp].d(G)[sp].d(A)[sp].[moe](A)[sp].[moe](C)[sp].[moe](A)[sp].[moe](A)[sp].[moe](A)[sp].[moe](T)}$$$$V2.0
- target mRNA inhibition (HepG2, 0.07 µM): 55% and 36%

Substance: RNA1{[moe](A)[sp].[moe](G)[sp].[moe](G)[sp].d(T)[sp].d(G)[sp].d(A)[sp].d(A)[sp].d(G)[sp].d(C)[sp].d(G)[sp].d(A)[sp].d(A)[sp].[moe](G)[sp].[moe](T)[sp].[moe](G)[sp].[moe](C)}$$$$V2.0
- target mRNA inhibition (HepG2, 0.07 µM): 68% and 58%

Substance: RNA1{[moe](A)[sp].[cEt](A)[sp].[moe](G)[sp].[cEt](C)[sp].d(G)[sp].[cEt](A)[sp].d(A)[sp].d(G)[sp].d(T)[sp].d(G)[sp].d(C)[sp].d(A)[sp].d(C)[sp].[moe](A)[sp].[moe](C)[sp].[moe](G)[sp].[moe](G)}$$$$V2.0
- target mRNA inhibition (HepG2, 0.009375 µM): 31%
- target mRNA inhibition (HepG2, 0.01875 µM): 28%
- target mRNA inhibition (HepG2, 0.0375 µM): 48%
- target mRNA inhibition (HepG2, 0.075 µM): 61%
- target mRNA inhibition (HepG2, 0.15 µM): 80%
- target mRNA inhibition (HepG2, 0.3 µM): 90%

Substance: RNA1{[moe](A)[sp].[moe](G)[sp].[moe](G)[sp].[moe](T)[sp].d(G)[sp].d(A)[sp].d(A)[sp].d(G)[sp].d(C)[sp].d(G)[sp].d(A)[sp].d(A)[sp].d(G)[sp].[moe](T)[sp].[moe](G)[sp].[moe](C)[sp].[moe](A)}$$$$V2.0
- target mRNA inhibition (HepG2, 0.07 µM): 58% and 56%

Substance: RNA1{[moe](A)[sp].[moe](A)[sp].[moe](G)[sp].[moe](C)[sp].d(G)[sp].d(A)[sp].d(A)[sp].d(G)[sp].d(T)[sp].d(G)[sp].d(C)[sp].d(A)[sp].d(C)[sp].[moe](A)[sp].[moe](C)[sp].[moe](G)[sp].[moe](G)}$$$$V2.0
- target mRNA inhibition (HepG2, 0.0092593 µM): 5%
- target mRNA inhibition (HepG2, 0.0277778 µM): 27%
- target mRNA inhibition (HepG2, 0.07 µM): 78% and 64%
- target mRNA inhibition (HepG2, 0.0833333 µM): 69%
- target mRNA inhibition (HepG2, 0.25 µM): 81%

Substance: RNA1{[moe](A)[sp].[cEt](C)[sp].[cEt](A)[sp].d(G)[sp].d(C)[sp].d(T)[sp].d(T)[sp].d(G)[sp].d(G)[sp].d(A)[sp].d(G)[sp].d(G)[sp].d(C)[sp].[cEt](T)[sp].[cEt](T)[sp].[moe](G)}$$$$V2.0
- target mRNA inhibition (HepG2, 0.07 µM): 10% and 0%

Substance: RNA1{[moe](G)[sp].[cEt](C)[sp].d(A)[sp].d(T)[sp].d(A)[sp].d(G)[sp].d(C)[sp].d(A)[sp].d(G)[sp].d(C)[sp].d(A)[sp].d(G)[sp].[cEt](G)[sp].[moe](A)[sp].[cEt](T)[sp].[moe](G)}$$$$V2.0
- target mRNA inhibition (HepG2, 0.07 µM): 76% and 78%

Substance: RNA1{[moe](A)[sp].[moe](C)[sp].[moe](C)[sp].[moe](A)[sp].d(A)[sp].d(T)[sp].d(T)[sp].d(T)[sp].d(A)[sp].d(T)[sp].d(G)[sp].d(C)[sp].d(C)[sp].[moe](T)[sp].[moe](A)[sp].[moe](C)[sp].[moe](A)}$$$$V2.0
- target mRNA inhibition (HepG2, 0.07 µM): 39% and 38%

Substance: RNA1{[moe](C)[sp].[cEt](T)[sp].[cEt](A)[sp].d(G)[sp].d(T)[sp].d(A)[sp].d(A)[sp].d(A)[sp].d(C)[sp].d(T)[sp].d(G)[sp].d(A)[sp].d(G)[sp].[cEt](C)[sp].[cEt](C)[sp].[moe](A)}$$$$V2.0
- target mRNA inhibition (HepG2, 0.0092593 µM): 33%
- target mRNA inhibition (HepG2, 0.0277778 µM): 49%
- target mRNA inhibition (HepG2, 0.07 µM): 76% and 71%
- target mRNA inhibition (HepG2, 0.0833333 µM): 71%
- target mRNA inhibition (HepG2, 0.25 µM): 88%

Substance: RNA1{[moe](G)[sp].[moe](A)[sp].[moe](G)[sp].[cEt](G)[sp].[cEt](T)[sp].d(G)[sp].d(A)[sp].d(A)[sp].d(G)[sp].d(C)[sp].d(G)[sp].d(A)[sp].[cEt](A)[sp].[cEt](G)[sp].[moe](T)[sp].[moe](G)[sp].[moe](C)}$$$$V2.0
- target mRNA inhibition (HepG2, 0.009375 µM): 19%
- target mRNA inhibition (HepG2, 0.01875 µM): 27%
- target mRNA inhibition (HepG2, 0.0375 µM): 35%
- target mRNA inhibition (HepG2, 0.075 µM): 48%
- target mRNA inhibition (HepG2, 0.15 µM): 50%
- target mRNA inhibition (HepG2, 0.3 µM): 63%

Substance: RNA1{[moe](T)[sp].[moe](G)[sp].[moe](A)[sp].d(G)[sp].d(A)[sp].d(G)[sp].d(A)[sp].d(A)[sp].d(G)[sp].d(T)[sp].d(C)[sp].d(C)[sp].d(A)[sp].[cEt](C)[sp].[cEt](C)[sp].[cEt](A)}$$$$V2.0
- target mRNA inhibition (HepG2, 0.07 µM): 35% and 41%
